Measurements reported in ChEMBL document CHEMBL5291721, “A preclinical secondary pharmacology resource illuminates target-adverse drug reaction associations of marketed drugs” (Nat Commun, 2023).

Legend:
[1] = biological target: Kappa-type opioid receptor (Homo sapiens, UniProt P41145)
[2] = biological target: Gamma-aminobutyric acid receptor subunit alpha-1 (Rattus norvegicus, UniProt P62813); format: functional
[3] = biological target: T1, Alpha-2B adrenergic receptor (Homo sapiens, UniProt P18089)
T1 sequence (P18089 whole entry): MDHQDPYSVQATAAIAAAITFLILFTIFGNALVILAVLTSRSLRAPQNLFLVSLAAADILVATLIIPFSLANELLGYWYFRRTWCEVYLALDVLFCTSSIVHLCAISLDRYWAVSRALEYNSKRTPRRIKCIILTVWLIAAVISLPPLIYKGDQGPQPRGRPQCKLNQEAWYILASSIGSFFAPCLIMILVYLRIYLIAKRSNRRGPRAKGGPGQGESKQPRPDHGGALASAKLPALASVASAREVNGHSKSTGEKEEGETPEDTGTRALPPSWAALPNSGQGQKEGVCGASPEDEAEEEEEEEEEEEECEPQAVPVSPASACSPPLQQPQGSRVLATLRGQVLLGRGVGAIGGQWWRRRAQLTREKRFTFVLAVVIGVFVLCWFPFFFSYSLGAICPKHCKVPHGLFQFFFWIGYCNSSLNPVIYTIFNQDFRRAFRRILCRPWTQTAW

D(3) dopamine receptor = D(3) dopamine receptor (Homo sapiens, UniProt P35462)
Progesterone receptor = biological target: T2, Progesterone receptor (Homo sapiens, UniProt P06401); format: functional
T2 sequence (P06401 whole entry): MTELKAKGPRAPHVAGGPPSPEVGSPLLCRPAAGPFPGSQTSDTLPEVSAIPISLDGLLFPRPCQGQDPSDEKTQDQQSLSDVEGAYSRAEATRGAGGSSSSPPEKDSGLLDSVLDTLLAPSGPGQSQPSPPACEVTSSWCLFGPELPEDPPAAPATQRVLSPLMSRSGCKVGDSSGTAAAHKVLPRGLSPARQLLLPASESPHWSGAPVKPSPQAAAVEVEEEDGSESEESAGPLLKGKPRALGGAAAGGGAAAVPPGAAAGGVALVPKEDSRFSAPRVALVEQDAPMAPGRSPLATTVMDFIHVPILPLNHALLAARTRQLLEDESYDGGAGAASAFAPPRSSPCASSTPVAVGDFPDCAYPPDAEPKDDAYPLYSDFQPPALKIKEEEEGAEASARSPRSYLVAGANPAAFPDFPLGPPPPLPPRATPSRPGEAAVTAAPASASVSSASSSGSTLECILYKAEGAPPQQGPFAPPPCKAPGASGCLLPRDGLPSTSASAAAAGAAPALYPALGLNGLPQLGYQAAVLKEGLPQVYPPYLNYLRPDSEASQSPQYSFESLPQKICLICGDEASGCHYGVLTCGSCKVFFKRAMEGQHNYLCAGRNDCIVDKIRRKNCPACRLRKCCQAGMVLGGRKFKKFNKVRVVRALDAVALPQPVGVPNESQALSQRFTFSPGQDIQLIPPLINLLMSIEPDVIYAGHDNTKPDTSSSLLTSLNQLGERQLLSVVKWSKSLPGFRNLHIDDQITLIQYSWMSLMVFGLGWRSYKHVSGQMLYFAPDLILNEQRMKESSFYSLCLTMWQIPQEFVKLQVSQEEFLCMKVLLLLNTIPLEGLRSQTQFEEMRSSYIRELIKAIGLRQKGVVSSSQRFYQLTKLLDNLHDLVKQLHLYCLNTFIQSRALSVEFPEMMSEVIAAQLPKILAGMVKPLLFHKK

Cannabinoid receptor 1 = Cannabinoid receptor 1 (Homo sapiens, UniProt P21554); format: functional, cell-based
Adenosine receptor A3 = biological target: T3, Adenosine receptor A3 (Homo sapiens, UniProt P0DMS8)
T3 sequence (P0DMS8 whole entry): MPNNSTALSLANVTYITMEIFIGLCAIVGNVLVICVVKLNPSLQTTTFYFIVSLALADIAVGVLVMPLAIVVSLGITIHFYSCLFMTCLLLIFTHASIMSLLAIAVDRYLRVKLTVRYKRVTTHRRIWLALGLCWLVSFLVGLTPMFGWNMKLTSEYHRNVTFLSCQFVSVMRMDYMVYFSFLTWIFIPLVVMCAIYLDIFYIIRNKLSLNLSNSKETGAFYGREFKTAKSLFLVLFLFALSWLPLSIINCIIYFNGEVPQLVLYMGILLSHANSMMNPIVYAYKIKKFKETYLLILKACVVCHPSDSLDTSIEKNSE

Vasopressin V2 receptor = Vasopressin V2 receptor (Homo sapiens, UniProt P30518)
[4] = biological target: T4, Muscarinic acetylcholine receptor M2 (Homo sapiens, UniProt P08172); format: functional, cell-based
T4 sequence (P08172 whole entry): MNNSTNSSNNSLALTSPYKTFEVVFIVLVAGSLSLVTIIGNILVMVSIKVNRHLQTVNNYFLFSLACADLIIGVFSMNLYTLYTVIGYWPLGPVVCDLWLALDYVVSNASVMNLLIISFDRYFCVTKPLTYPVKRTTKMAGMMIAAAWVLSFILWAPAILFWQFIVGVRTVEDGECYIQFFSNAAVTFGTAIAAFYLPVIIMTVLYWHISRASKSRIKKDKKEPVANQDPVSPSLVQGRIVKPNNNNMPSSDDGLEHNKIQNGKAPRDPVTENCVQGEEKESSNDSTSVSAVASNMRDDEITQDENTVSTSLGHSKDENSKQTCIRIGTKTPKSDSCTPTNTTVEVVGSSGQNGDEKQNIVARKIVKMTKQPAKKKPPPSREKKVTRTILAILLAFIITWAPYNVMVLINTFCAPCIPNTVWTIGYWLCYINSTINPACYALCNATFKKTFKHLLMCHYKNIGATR

[5] = biological target: T5, Amine oxidase [flavin-containing] A (Homo sapiens, UniProt P21397); format: functional
T5 sequence (P21397 whole entry): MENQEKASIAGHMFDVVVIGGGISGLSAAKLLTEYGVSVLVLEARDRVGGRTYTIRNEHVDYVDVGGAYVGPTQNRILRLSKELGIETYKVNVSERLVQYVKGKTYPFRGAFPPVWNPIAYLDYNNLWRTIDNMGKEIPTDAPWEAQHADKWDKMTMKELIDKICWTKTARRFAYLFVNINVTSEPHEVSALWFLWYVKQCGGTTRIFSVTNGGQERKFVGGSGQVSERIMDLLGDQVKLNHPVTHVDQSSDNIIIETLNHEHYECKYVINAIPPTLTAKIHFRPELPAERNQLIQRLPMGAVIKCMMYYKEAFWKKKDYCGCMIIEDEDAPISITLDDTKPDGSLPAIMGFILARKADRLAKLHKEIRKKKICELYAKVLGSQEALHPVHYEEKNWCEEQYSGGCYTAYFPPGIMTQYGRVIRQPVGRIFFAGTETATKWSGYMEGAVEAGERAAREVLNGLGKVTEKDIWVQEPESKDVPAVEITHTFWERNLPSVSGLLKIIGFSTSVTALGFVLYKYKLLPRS
Also: assay procedure not described here.

Sequence of Gamma-aminobutyric acid receptor subunit alpha-1 (P62813 whole entry): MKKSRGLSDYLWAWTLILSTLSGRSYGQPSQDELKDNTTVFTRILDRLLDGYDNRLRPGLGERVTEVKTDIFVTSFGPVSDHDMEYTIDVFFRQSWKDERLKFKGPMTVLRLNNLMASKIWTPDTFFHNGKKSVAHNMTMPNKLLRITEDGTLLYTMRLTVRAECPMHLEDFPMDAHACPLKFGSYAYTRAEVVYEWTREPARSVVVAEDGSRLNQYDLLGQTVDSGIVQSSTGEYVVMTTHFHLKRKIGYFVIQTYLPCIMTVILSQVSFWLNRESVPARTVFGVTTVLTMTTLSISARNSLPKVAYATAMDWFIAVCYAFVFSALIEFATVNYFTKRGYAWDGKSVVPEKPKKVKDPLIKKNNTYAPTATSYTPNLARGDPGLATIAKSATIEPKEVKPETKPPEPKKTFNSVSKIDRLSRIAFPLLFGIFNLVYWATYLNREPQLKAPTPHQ
Sequence of Kappa-type opioid receptor (P41145 whole entry): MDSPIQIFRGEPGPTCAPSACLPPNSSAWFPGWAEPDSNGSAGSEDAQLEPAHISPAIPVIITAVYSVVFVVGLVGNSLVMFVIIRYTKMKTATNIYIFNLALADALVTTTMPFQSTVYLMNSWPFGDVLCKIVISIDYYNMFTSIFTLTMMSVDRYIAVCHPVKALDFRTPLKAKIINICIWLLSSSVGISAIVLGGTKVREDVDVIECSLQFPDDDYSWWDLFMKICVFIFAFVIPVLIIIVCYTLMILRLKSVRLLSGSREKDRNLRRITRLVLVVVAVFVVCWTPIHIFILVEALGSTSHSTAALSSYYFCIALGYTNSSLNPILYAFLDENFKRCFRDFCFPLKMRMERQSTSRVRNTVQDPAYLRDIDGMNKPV
Sequence of Cannabinoid receptor 1 (P21554 whole entry): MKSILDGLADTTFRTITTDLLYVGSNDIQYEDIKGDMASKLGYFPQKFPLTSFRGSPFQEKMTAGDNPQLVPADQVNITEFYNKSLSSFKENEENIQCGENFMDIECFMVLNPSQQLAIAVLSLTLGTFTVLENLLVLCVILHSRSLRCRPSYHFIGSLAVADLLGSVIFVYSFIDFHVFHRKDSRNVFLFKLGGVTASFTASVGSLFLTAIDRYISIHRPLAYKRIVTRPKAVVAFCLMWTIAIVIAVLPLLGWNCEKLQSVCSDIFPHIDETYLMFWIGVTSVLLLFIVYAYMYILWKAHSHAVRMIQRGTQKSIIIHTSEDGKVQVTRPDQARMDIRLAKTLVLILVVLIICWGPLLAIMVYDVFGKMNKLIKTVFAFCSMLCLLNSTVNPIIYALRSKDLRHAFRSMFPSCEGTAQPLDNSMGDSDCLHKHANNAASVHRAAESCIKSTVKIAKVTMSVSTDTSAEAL
Sequence of Vasopressin V2 receptor (P30518 whole entry): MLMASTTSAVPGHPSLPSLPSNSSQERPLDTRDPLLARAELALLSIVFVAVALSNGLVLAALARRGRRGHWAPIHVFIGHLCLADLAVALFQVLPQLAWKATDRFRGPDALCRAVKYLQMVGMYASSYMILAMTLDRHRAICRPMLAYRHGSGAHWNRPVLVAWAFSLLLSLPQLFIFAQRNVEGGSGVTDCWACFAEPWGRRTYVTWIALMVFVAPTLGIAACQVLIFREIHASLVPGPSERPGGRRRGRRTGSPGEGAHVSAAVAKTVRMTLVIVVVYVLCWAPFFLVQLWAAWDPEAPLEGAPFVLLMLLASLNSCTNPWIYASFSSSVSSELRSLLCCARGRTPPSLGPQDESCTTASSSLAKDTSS
Sequence of D(3) dopamine receptor (P35462 whole entry): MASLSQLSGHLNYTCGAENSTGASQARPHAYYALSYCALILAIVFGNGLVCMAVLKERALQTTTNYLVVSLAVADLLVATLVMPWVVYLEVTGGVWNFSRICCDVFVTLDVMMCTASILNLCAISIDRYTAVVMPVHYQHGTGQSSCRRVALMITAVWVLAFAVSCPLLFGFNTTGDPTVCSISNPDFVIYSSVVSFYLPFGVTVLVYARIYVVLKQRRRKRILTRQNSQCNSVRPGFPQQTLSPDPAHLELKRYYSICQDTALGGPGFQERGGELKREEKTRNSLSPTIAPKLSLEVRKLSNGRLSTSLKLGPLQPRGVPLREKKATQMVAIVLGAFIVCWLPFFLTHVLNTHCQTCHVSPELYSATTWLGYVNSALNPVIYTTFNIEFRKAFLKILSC

Structure (SMILES)	AC50 [1]	AC50 [2]	AC50 [3]	AC50 (D(3) dopamine receptor)	AC50 (Progesterone receptor)	AC50 (Cannabinoid receptor 1)	AC50 (Adenosine receptor A3)	AC50 (Vasopressin V2 receptor)	AC50 [4]	AC50 [5]
Clc1ccc(CCCOCCCN2CCCCC2)cc1 [PITOLISANT]	> 30 µM	> 30 µM	> 30 µM	> 30 µM	> 30 µM	> 30 µM	> 30 µM	> 30 µM	> 30 µM	> 30 µM
C=CCN1CCCC1CNC(=O)c1cc(S(N)(=O)=O)cc(OC)c1OC (stereo not given) [VERALIPRIDE]	> 30 µM	> 30 µM	3.2 µM	0.003 µM	> 30 µM	> 30 µM	> 30 µM	> 30 µM	> 30 µM	> 30 µM
CCOC(=O)[N-]c1cn(N2CCOCC2)n[o+]1 [MOLSIDOMINE]	> 30 µM	> 30 µM	> 30 µM	> 30 µM	> 30 µM	> 30 µM	> 30 µM	> 30 µM	> 30 µM	–
CCC(C(=O)O)c1ccc(N2Cc3ccccc3C2=O)cc1 (stereo not given) [INDOBUFEN]	> 30 µM	> 30 µM	> 30 µM	> 30 µM	> 30 µM	> 30 µM	> 30 µM	> 30 µM	> 30 µM	> 30 µM
OC(CNCC(O)C1CCc2cc(F)ccc2O1)C1CCc2cc(F)ccc2O1 (stereo not given) [NEBIVOLOL]	10 µM	> 30 µM	4.5 µM	2 µM	> 30 µM	24 µM	19 µM	29 µM	> 30 µM	> 30 µM
Cc1ccc(-n2nccn2)c(C(=O)N2CCN(c3nc4cc(Cl)ccc4o3)CC[C@H]2C)c1 [SUVOREXANT]	> 30 µM	> 30 µM	26 µM	> 30 µM	> 30 µM	> 30 µM	> 10 µM	> 30 µM	> 30 µM	> 30 µM
CC(=O)O[C@H]1CC[C@@]2(C)C(=CC[C@@H]3[C@@H]2CC[C@]2(C)C(c4cccnc4)=CC[C@@H]32)C1 [ABIRATERONE ACETATE]	–	> 30 µM	> 30 µM	> 30 µM	> 30 µM	> 30 µM	> 30 µM	–	> 30 µM	> 30 µM
CCOC(=O)[C@H](CCc1ccccc1)N[C@@H](C)C(=O)N1C(=O)N(C)C[C@H]1C(=O)O	–	> 30 µM	> 30 µM	> 30 µM	> 30 µM	> 30 µM	> 30 µM	> 30 µM	> 30 µM	> 30 µM
C/C(O)=C(\C#N)C(=O)Nc1ccc(C(F)(F)F)cc1 [TERIFLUNOMIDE]	–	> 30 µM	> 30 µM	> 30 µM	> 30 µM	> 30 µM	> 30 µM	–	> 30 µM	4.9 µM
CC(CC(c1ccccc1)c1ccccc1)NC(C)(C)C (stereo not given) [TERODILINE]	8.4 µM	> 30 µM	16 µM	> 30 µM	> 30 µM	> 30 µM	> 30 µM	> 30 µM	> 30 µM	> 30 µM
COc1ccccc1OCCNCC(O)c1ccc(C)c(S(N)(=O)=O)c1 (stereo not given) [AMOSULALOL]	> 30 µM	> 30 µM	6.9 µM	0.12 µM	> 30 µM	> 30 µM	> 30 µM	> 30 µM	> 30 µM	> 30 µM
COc1ccc(-c2ccc3cc(C(=O)O)ccc3c2)cc1C12CC3CC(CC(C3)C1)C2	> 30 µM	> 30 µM	> 30 µM	> 30 µM	4.2 µM	> 30 µM	> 30 µM	> 30 µM	> 30 µM	> 30 µM
CCCCCCOc1ccccc1C(N)=O [EXALAMIDE]	9.3 µM	> 30 µM	> 30 µM	> 30 µM	> 30 µM	> 30 µM	> 30 µM	> 30 µM	–	> 30 µM
COc1cc2c(N)nc(N3CCN(C(=O)OCC(C)(C)O)CC3)nc2c(OC)c1OC [TRIMAZOSIN]	> 30 µM	> 30 µM	> 30 µM	> 30 µM	> 30 µM	> 30 µM	> 30 µM	> 30 µM	> 30 µM	> 30 µM
COc1ccc2c3c1O[C@H]1C(=O)CC[C@@]4(O)[C@@H](C2)N(C)CC[C@]314 [OXYCODONE]	–	> 30 µM	> 30 µM	> 30 µM	> 30 µM	> 30 µM	> 30 µM	> 30 µM	> 30 µM	> 30 µM
CC(C)C(=O)c1c(C(C)C)nn2ccccc12 [IBUDILAST]	> 30 µM	5.7 µM	> 30 µM	> 30 µM	> 30 µM	> 30 µM	> 30 µM	> 30 µM	> 30 µM	–
CCCc1nc(C(C)(C)O)c(C(=O)OCc2oc(=O)oc2C)n1Cc1ccc(-c2ccccc2-c2nnn[nH]2)cc1 [OLMESARTAN MEDOXOMIL]	> 10 µM	> 10 µM	> 10 µM	> 10 µM	–	> 30 µM	> 10 µM	> 30 µM	> 10 µM	> 10 µM
